Read-outs that look alike come from different tables or passages of the source. Each block holds one molecule with its values, some of them ahead of it.
Columns and labels:
Assay in all cases: biochemical
Parameters in all cases: DiscoveRx KINOMEscan active site-directed competition binding; percent of control kinase bound to immobilised ligand
[1] = target: T1, NEK3 (Homo sapiens, UniProt P51956)
T1 sequence (P51956 1-506): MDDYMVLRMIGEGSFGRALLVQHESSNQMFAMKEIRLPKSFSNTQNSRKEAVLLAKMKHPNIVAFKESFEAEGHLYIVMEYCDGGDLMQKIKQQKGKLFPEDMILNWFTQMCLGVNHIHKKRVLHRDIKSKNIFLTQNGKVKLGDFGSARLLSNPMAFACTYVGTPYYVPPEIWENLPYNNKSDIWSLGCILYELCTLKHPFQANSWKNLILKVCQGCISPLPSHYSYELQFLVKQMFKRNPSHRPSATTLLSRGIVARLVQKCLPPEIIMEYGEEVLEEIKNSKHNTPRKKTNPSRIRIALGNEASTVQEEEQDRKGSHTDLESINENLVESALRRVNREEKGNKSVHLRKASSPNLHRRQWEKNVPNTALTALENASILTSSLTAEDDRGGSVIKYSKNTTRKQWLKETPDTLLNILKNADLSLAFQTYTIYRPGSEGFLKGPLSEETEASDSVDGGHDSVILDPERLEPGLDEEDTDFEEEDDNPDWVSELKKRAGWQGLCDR

[2] = target: T2, FLT3-autoinhibited (Homo sapiens, UniProt P36888)
T2 sequence (P36888 1-993): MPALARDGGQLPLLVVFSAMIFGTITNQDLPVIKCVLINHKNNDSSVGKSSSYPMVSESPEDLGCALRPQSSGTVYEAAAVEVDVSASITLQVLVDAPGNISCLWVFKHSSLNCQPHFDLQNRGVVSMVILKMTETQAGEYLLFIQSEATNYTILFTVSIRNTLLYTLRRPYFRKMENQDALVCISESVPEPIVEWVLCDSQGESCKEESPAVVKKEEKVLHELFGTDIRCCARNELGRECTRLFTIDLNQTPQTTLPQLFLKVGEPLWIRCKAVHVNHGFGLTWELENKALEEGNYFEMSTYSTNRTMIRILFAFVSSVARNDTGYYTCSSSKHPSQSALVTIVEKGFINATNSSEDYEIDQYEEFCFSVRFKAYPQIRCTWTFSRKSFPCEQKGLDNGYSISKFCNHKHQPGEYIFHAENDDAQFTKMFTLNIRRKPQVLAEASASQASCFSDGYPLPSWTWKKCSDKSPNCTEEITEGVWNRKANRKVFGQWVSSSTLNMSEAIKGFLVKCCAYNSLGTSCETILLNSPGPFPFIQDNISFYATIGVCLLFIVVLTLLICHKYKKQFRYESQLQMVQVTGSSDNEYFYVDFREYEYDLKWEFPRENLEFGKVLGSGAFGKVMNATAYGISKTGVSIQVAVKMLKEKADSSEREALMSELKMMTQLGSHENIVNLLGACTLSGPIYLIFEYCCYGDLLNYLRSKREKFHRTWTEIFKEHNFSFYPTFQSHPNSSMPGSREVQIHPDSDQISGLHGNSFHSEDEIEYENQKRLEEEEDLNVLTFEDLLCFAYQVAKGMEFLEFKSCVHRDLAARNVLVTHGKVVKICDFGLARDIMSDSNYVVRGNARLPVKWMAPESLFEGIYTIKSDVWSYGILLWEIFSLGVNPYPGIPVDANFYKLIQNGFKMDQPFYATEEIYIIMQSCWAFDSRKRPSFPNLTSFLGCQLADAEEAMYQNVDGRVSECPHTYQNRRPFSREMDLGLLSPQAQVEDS

[3] = target: T3, NIM1 (Homo sapiens, UniProt Q8IY84)
T3 construct: gene NIM1K
T3 sequence (Q8IY84 whole entry): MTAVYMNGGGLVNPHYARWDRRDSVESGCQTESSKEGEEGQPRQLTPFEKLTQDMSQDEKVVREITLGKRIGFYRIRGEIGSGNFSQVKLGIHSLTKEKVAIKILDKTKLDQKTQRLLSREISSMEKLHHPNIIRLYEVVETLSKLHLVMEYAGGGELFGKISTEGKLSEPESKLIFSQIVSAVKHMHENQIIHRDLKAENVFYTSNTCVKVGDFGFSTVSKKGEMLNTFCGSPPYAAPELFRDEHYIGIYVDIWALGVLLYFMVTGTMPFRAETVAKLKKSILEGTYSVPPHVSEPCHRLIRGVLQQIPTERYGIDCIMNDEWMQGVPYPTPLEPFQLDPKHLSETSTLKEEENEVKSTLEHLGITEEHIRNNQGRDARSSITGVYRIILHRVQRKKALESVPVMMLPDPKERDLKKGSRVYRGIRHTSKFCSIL

[4] = target: T4, PRKD1 (Homo sapiens, UniProt Q15139)
T4 sequence (Q15139 1-912): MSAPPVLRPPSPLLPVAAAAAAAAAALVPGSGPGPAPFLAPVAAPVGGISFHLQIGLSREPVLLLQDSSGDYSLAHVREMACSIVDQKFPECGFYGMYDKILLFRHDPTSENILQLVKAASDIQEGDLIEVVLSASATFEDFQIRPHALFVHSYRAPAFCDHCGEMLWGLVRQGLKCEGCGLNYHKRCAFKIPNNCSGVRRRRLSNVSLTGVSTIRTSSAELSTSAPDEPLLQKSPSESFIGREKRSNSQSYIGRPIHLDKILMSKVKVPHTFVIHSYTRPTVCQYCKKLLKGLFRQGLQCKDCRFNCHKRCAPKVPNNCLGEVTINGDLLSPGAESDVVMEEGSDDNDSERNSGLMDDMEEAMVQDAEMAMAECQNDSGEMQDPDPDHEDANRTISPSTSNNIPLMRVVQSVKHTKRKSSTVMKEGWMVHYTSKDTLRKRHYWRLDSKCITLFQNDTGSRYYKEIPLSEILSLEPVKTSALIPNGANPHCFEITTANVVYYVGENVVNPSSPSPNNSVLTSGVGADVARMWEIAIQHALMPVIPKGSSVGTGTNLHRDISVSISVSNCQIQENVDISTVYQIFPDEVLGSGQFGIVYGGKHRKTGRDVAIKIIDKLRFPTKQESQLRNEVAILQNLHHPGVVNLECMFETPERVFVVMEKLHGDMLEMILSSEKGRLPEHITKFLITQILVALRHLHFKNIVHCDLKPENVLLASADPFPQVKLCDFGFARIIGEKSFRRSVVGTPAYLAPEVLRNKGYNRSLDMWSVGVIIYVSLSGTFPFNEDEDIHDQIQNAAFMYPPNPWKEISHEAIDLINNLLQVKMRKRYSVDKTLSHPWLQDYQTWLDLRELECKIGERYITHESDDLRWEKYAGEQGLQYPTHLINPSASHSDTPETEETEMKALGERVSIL

[5] = target: LRRK2(G2019S) (Homo sapiens, UniProt Q5S007, G2019S)
Chain of LRRK2(G2019S) (Q5S007 whole entry G2019S): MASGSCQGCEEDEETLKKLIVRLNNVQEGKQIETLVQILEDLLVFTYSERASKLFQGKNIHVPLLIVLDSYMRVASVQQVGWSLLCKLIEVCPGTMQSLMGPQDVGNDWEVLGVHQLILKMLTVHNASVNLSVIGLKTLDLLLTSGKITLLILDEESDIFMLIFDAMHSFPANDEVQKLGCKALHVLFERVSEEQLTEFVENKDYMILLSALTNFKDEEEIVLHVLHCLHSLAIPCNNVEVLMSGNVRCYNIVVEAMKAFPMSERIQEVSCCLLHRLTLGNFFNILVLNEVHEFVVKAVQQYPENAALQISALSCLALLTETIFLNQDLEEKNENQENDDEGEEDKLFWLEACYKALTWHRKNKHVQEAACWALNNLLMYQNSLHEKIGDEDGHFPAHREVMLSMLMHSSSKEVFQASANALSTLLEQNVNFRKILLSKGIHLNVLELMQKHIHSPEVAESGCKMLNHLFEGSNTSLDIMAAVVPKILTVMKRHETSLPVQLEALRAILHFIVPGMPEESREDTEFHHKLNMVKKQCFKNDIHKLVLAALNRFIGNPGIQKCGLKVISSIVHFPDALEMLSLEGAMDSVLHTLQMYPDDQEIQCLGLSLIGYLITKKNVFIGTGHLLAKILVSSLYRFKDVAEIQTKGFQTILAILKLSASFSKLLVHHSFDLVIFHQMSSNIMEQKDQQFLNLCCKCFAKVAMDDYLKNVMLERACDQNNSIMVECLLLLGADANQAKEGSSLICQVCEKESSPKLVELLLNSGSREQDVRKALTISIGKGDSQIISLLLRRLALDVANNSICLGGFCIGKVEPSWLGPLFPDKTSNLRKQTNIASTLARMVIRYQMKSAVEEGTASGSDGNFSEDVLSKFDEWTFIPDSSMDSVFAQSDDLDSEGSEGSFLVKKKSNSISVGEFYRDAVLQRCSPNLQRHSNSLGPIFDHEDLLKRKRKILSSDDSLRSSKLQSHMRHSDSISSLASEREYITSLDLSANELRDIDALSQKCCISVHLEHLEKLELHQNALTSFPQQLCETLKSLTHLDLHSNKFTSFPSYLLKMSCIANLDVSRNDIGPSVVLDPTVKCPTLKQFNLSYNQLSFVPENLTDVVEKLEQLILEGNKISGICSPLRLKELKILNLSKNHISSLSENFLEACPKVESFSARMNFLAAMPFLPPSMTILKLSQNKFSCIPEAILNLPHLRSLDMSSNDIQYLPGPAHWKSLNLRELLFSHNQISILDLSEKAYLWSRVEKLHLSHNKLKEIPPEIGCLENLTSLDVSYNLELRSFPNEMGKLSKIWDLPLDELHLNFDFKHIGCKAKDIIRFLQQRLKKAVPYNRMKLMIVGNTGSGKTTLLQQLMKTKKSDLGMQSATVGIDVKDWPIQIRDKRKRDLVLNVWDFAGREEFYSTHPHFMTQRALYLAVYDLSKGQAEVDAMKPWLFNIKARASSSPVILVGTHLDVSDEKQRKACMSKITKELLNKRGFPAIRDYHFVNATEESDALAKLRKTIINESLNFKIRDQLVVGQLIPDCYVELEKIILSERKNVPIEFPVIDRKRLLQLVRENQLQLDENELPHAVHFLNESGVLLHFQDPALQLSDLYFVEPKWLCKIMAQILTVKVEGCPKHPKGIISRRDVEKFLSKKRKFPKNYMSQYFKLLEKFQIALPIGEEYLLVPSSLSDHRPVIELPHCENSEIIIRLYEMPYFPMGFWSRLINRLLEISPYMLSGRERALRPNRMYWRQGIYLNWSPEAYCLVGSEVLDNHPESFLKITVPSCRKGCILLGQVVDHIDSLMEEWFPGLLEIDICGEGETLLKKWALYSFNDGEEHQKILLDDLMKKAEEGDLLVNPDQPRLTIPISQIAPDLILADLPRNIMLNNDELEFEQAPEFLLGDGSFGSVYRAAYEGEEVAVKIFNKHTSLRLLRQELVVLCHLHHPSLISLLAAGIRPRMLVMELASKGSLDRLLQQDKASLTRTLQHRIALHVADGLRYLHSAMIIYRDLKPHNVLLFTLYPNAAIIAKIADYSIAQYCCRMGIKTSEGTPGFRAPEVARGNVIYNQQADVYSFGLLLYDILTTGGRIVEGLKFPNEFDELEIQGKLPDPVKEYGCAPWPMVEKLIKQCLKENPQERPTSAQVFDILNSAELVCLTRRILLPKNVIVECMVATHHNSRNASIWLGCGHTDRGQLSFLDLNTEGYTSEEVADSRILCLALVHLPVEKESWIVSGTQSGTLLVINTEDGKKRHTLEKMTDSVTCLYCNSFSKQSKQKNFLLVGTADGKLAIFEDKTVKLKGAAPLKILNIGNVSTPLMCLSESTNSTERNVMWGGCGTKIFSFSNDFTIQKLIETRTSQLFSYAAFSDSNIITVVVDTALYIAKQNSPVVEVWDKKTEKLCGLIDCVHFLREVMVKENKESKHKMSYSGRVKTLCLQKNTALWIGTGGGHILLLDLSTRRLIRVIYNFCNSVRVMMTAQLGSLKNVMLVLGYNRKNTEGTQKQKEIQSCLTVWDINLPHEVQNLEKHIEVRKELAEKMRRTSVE

[6] = read-out: Niraparib (MK-4827) / %Ctrl @ 10000nM
[7] = read-out: Olaparib / %Ctrl @ 10000nM
[8] = read-out: Rucaparib / %Ctrl @ 10000nM, binding competition, % of control
[9] = read-out: Talazoparib (BMN 673) / %Ctrl @ 10000nM

Structure (SMILES): NC(=O)c1cccc2cn(-c3ccc([C@@H]4CCCNC4)cc3)nc12 [Niraparib]
- percent of control binding at 10 µM [1, 6]: 88%
- percent of control binding at 10 µM [2, 6]: 84%
- percent of control binding at 10 µM [3, 6]: 100%
- percent of control binding at 10 µM [4, 6]: 86%
- percent of control binding at 10 µM [5, 6]: 89%

- percent of control binding at 10 µM [1, 7]: 81%
- percent of control binding at 10 µM [2, 7]: 87%
- percent of control binding at 10 µM [3, 7]: 83%
- percent of control binding at 10 µM [4, 7]: 89%
- percent of control binding at 10 µM [5, 7]: 84%
Structure (SMILES): O=C(c1cc(Cc2n[nH]c(=O)c3ccccc23)ccc1F)N1CCN(C(=O)C2CC2)CC1 [Olaparib]

- percent of control binding at 10 µM [1, 8]: 86%
- Rucaparib / %Ctrl @ 10000nM ([2]; binding competition, % of control): 93%
- percent of control binding at 10 µM [3, 8]: 71%
- percent of control binding at 10 µM [4, 8]: 67%
- percent of control binding at 10 µM [5, 8]: 87%
Structure (SMILES): CNCc1ccc(-c2[nH]c3cc(F)cc4c3c2CCNC4=O)cc1 [Rucaparib]

- percent of control binding at 10 µM [1, 9]: 66%
- percent of control binding at 10 µM [2, 9]: 100%
- percent of control binding at 10 µM [3, 9]: 79%
- percent of control binding at 10 µM [4, 9]: 100%
- percent of control binding at 10 µM [5, 9]: 100%
Structure (SMILES): Cn1ncnc1[C@H]1c2n[nH]c(=O)c3cc(F)cc(c23)N[C@@H]1c1ccc(F)cc1 [Talazoparib]
